In patent publication US20100075894A1, “REDUCING ER STRESS IN THE TREATMENT OF OBESITY AND DIABETES” (HARVARD UNIVERSITY, priority 2004, published 2010):
Entries after “also recorded” stand apart in the source; their conditions may differ.

Experiments:
JNK = JNK activity in liver tissue of obese mice after PBA; assay type: in vivo, mouse; conditions: FIG. 21
ER stress = ER stress markers in animals, western blot after treatment with the compound; assay type: in vivo; conditions: for activation of JNK / phosphorylation of IRE-1α / phosphorylation of PERK: animals treated with the compound, western blot; for ER stress: overall statement
Description: (§1) For example, obesity increases the demand on the synthetic machinery of the cell in many secretory organ systems and is also associated with abnormalities in intracellular energy fluxes and nutrient availability. The present invention stems from the recognition that many of these diseases associated with obesity cause ER stress, particularly in peripheral tissues, and that ER stress is involved in triggering insulin resistance and type 2 diabetes, two sequelae of obesity. […] The agents useful in the treatment of these diseases include small molecules, proteins, nucleic acids, and any other chemical compounds known to reduce or prevent ER stress. These agents make act in any manner that reduces or prevents ER stress such as reducing the production of mutant or misfolded proteins, increasing the expression of ER chaperones, increasing the stability of proteins, boosting the processing capacity of the ER, etc. Particularly useful agents include chemical chaperones such as 4-phenyl butyrate (PBA), tauroursodeoxycholic acid (TUDCA), trimethylamine N-oxide (TMAO), glycerol, D2O, dimethylsufloxide, glycine betaine, methyl amines, and glycerophosphocholine. […] The agents may be administered in any manner known in the drug delivery art although preferably the agent is delivered orally or parenterally. Dose ranges for these agents depend on the agent being delivered as well as other factors but will typically be from 10 mg/kg/day to 10 g/kg/day.

[1] = tested on: insulin receptor signaling; assay: insulin receptor signaling in animals after treatment; assay type: in vivo; conditions: for serine phosphorylation of Akt / tyrosine phosphorylation of insulin receptor, insulin substrate 1-IRS-1 and IRS-1: animals; for insulin (receptor) signaling: overall statement
Description: as §1

ob/ob mice [2] = assay: 4-PBA in ob/ob mice: blood glucose, insulin tolerance test; assay type: in vivo, mouse; conditions: for blood glucose levels / insulin sensitivity in vivo: ob/ob mice
Experimental: A genetic (ob/ob) model of mouse obesity was used to analyze the effects of 4-phenyl butyrate (4-PBA) on insulin sensitivity and hyperglycemia. 10-12 weeks old, male, leptin deficient mice were obtained from Jackson Labs, acclimated by three times injection of PBS (3 times a day) for 4 days, and treated either with intraperitoneal injection of 4-PBA (1 g/kg/day in three divided doses) or phosphate buffer saline (PBS) (3 doses of 100 μl) for a period of 7 days. Fed blood glucose levels (mg/dl) at the 3rd and 7th days of trial (a). Insulin Tolerance Test (ITT) were performed on the 7th day after the first injection (b).
A genetic (ob/ob) model of mouse obesity was used to analyze the effects to 4-phenyl butyrate (4-PBA) on insulin sensitivity and hyperglycemia. 8-10 weeks old, male, leptin deficient mice were obtained from Jackson Labs, acclimated by PBS injection (2 times a day) for 4 days, and treated either with 4-PBA (500 mg/kg/day in two divided doses) or phosphate buffer saline (PBS) (2 doses of 200 μl) for a period of 20 days. Body weight during the treatment period (a). Blood glucose levels (mg/dl) after 6 hours of fasting at day 0 and day 20 (b). Insulin (ng/ml) levels at day 0 and day 20 (c). Insulin tolerance tests were performed at the 15th day of the treatment (d).
Animal Studies and Obesity Models: Adult (10-12 weeks of age) male ob/ob mice and their wild type (WT) littermates were purchased from Jackson Labs. Mice used in the diet-induced obesity model were male C57BL/6. All mice were placed on high fat diet (HFD: 35.5% fat, 20% protein, 32.7% carbohydrates, Bio-Serve) immediately after weaning (at ˜3 weeks of age). The XBP-1^+/− and XBP-1^+/+ mice were on Balb/C genetic background. Insulin and glucose tolerance tests were performed as previously described (Hirosumi et al., Nature 420:333 (2002); incorporated herein by reference). Insulin and C-peptide ELISA were performed according to manufacturer's instructions using mouse standards (Crystal Chem. Inc., Downers Grove, Ill.). Pancreas isolated from 16-week-old mice was fixed in Bouin's fluid and formalin, and paraffin sections were double-stained with guinea pig anti-insulin and rabbit anti-glucagon antibodies. Texas red dye conjugated donkey anti-guinea pig IgG and FITC conjugated Goat anti-rabbit IgG were used as secondary antibodies.

ob/ob mice [3] = assay: TUDCA in ob/ob mice: blood glucose, ITT; assay type: in vivo, mouse
Experimental: 9-10 weeks old ob/ob and their age and sex matched lean controls were used to analyze the effects of TUDCA on glucose metabolism and diabetes. After acclimation with PBS injection (once a day, 200 μl i.p. injection) for 4 days, mice were injected intraperitoneally with TUDCA (500 mg/kg once a day in 200 μl of PBS) (n=6 for lean and n=7 for ob/ob) and PBS (200 μl) (n=6 lean and n=7 for ob/ob). Blood glucose levels on the 4th, 7th, and 10th days after first injection (a). ITT on 10 days after the first injection (b).

ob/ob mice [4] = assay: TMAO in ob/ob mice: fed blood glucose, serum insulin; assay type: in vivo, mouse
Experimental: Experiments were performed using the ob/ob genetic model of obesity and insulin resistance (C57BL/6J-Lep-ob mice purchased from Jackson Laboratory, Bar Harbor, Me.). At seven weeks of age, treatments were started after acclimatization for 5 days by administration of PBS. After this period, TMAO (Sigma, T0514) was dissolved in PBS and administered by intraperitoneal (IP) injection every 24 hours at a dose of 1 g/kg/day. At the indicated days, fed blood glucose levels were measured at 8:00 AM using an automated glucometer system. For insulin measurements, blood samples were collected after 6 hours of fasting and serum insulin levels were determined using a specific ELISA (Crystal Chem, 90060). Each treatment group contained at least six animals per experimental group.

ob/ob mice [5] = assay: sodium 4-phenylbutyrate and metformin in ob/ob mice: fed blood glucose; assay type: in vivo, mouse; conditions: oral gavage daily, 200 mg/kg/day (each), fed state
Experimental: Experiments are performed using the ob/ob genetic model of obesity and insulin resistance (C57B6. V-Lepob/OlaHsd mice were purchased from Harlan Teklad, Madison, Wis.). At seven weeks of age, treatments were started after acclimatization for 5 days by administration of PBS. After this period, PBS, sodium 4-phenylbutyrate (200 mg/kg/day), metformin (200 mg/kg/day), and sodium 4-phenylbutyrate plus metformin (200 mg/kg/day each) were administered into four separate experimental groups of mice (with at least six mice in each group) by oral gavage daily. […] Blood glucose levels were measured at the fed state at 8:00 AM.

Fao liver cells = assay: ER stress inducers and insulin action in Fao liver cells; assay type: cell-based, rat; conditions: Fao cells, FIG. 12A
Experimental: (A) ER stress was induced in Fao liver cells by a 3-hour treatment with 5 μg/ml tunicamycin (Tun). Cells were subsequently stimulated with insulin (Ins). IRS-1 tyrosine and serine (Ser307) phosphorylation, Akt phosphorylation (Ser473), insulin receptor (IR) tyrosine phosphorylation, and their total protein levels were examined using either immunoprecipitation (IP) followed by immunoblotting (IB) or direct immunoblotting. (B) Quantitation of IRS-1 (tyrosine and Ser307), Akt (Ser473), and IR (tyrosine) phosphorylation under the experimental conditions described in (A) with normalization to protein levels for each molecule. (C) Inhibition of ER stress-induced (300 nM thapsigargin for 4 hours) Ser307 phosphorylation of IRS-1 by JNK-1 inhibitor, SP600125 (JNKi, 25 μM), (D) Quantitation of IRS-1 Ser307 phosphorylation under conditions described in (C). (E) Reversal of ER stress-induced inhibition of insulin-stimulated tyrosine phosphorylation (pY) of IRS-1 by a JNK inhibitor. (F) Quantitation of insulin-induced IRS-1 tyrosine phosphorylation levels described in (E). (G) JNK activity, Ser307 phosphorylation of IRS-1, and total IRS-1 levels at indicated times following tunicamycin treatment (Tun, 10 μg/ml for 1 hour) in IRE-1α^+/+ and IRE-1α^−/− fibroblasts. (H) Insulin-stimulated IRS-1 tyrosine phosphorylation and total IRS-1 levels following tunicamycin treatment (Tun, 10 μg/ml for 1 hour) in IRE-1α^+/+ and IRE-1α^−/− fibroblasts. […] All graphs show mean±SEM from at least 2 independent experiments and statistical significance from the controls is indicated by * with p<0.005.
(A) ER stress was induced in Fao cells by 1 hour treatment with 300 nM thapsigargin (Thap), and cells were subsequently stimulated with insulin (Ins). IRS-1 tyrosine phosphorylation (pY) and serine phosphorylation (pSer307), insulin receptor (IR) tyrosine phosphorylation, and total protein levels were examined using either immunoprecipitation (IP) followed by immunoblotting (IB) or direct immunoblotting. (B) Fao cells were treated with sulindac sulfide (SS: 0, 7.5, 30, and 60 μM) for 45 minutes with or without an additional hour of exposure to 300 nM thapsigargin (Thap). IRS-1 serine phosphorylation and total IRS-1 protein levels were examined as described above.
To investigate whether ER stress interferes with insulin action, we pretreated Fao liver cells with tunicamycin and thapsigargin, agents commonly used to induce ER stress. […] IRS-1 is a substrate for insulin receptor tyrosine kinase and serine phosphorylation of IRS-1, particularly mediated by JNK, reduces insulin receptor signaling (Hirosumi et al., Nature 420:333 (2002); incorporated herein by reference).
Cells: Rat Fao liver cells were cultured with RPMI 1640 (Gibco, Grand Island, N.Y.) containing 10% fetal bovine serum (FBS). […]

[6] = FIG. 7, animals with insulin resistance and type 2 diabetes, 1 g/kg/day IP

| Molecule | activation of JNK (ER stress) | phosphorylation of IRE-1α (ER stress) | phosphorylation of PERK (ER stress) | ER stress (ER stress) | serine phosphorylation of Akt [1] | tyrosine phosphorylation of insulin receptor, insulin substrate 1-IRS-1 and IRS-1 [1] | insulin (receptor) signaling [1] | glucose levels (ob/ob mice [4]; [6]) | blood glucose (ob/ob mice [5]) | other results |
| --- | --- | --- | --- | --- | --- | --- | --- | --- | --- | --- |
| O=C(O)CCCc1ccccc1 [PBA, 4-phenyl butyric acid] | reduced | reduced | reduced | regulate ER stress in animals; also recorded: reduce ER stress | increased | increased | regulate insulin receptor signaling |  |  | JNK activity in liver tissue (JNK): normalization of JNK activity; blood glucose (ob/ob mice [2]; FIGS. 4 and 5): effective in reducing blood glucose; insulin sensitivity (ob/ob mice [2]; FIGS. 4 and 5): increasing insulin sensitivity; blood glucose levels (ob/ob mice [2]; oral route 500 mg/kg/day in two divided doses, 20 days): lowers blood glucose levels; insulin sensitivity in vivo (ob/ob mice [2]; oral route 500 mg/kg/day, ITT at 15th day): increases insulin sensitivity; blood glucose levels (ob/ob mice [2]; parenteral (intraperitoneal) 1 g/kg/day in three divided doses, 7 days): lowers blood glucose levels; insulin sensitivity in vivo (ob/ob mice [2]; parenteral (intraperitoneal) 1 g/kg/day, ITT on 7th day): increases insulin sensitivity |
| C[C@H](CCC(=O)NCCS(=O)(=O)O)[C@H]1CC[C@H]2[C@@H]3[C@@H](O)C[C@@H]4C[C@H](O)CC[C@]4(C)[C@H]3CC[C@]12C [TUDCA, tauroursodeoxycholic acid] | reduced | reduced | reduced | regulate ER stress in animals; also recorded: reduce ER stress | increased | increased | regulate insulin receptor signaling | reduce blood glucose levels |  | diabetes (ob/ob mice [3]; 500 mg/kg once a day i.p.): reverses diabetes; blood glucose levels (ob/ob mice [3]; FIG. 6, 500 mg/kg once a day i.p.): reduce blood glucose levels; insulin sensitivity (ob/ob mice [3]; FIG. 6, 500 mg/kg once a day i.p., 500 mg/kg): increases insulin sensitivity; insulin sensitivity (ob/ob mice [4]; FIG. 7): increase insulin sensitivity |
| CN(C)C(=N)N=C(N)N [metformin] |  |  |  |  |  |  |  |  | did not have any effect on blood glucose |  |
| O=C([O-])CCCc1ccccc1.[Na+] [sodium 4-phenylbutyrate] |  |  |  |  |  |  |  |  | did not have any effect on blood glucose |  |
| C/C=C(/C)C(=O)O[C@H]1C(C)=C2[C@H]([C@@H]1OC(=O)CCCCCCC)[C@@](C)(OC(C)=O)C[C@H](OC(=O)CCC)[C@@]1(O)[C@H]2OC(=O)[C@@]1(C)O [thapsigargin] |  |  |  |  |  |  |  |  |  | insulin receptor signaling (as for tunicamycin) (Fao liver cells): Similar, results were also obtained |
| trimethylamine N-oxide [TMAO] |  |  |  | reduce ER stress |  |  |  | lowering |  | anti-diabetic effect (ob/ob mice [4]; FIG. 7, ob/ob mice, 1 g/kg/day IP): act as an anti-diabetic agent in vivo; also recorded: anti-diabetic effect; insulin levels (ob/ob mice [4]; animals with insulin resistance and type 2 diabetes, 1 g/kg/day IP): lowering |
